Measurements as given in patent publication US20230339878A1, “SLC26A3 INHIBITORS AND USE THEREOF” (THE REGENTS OF THE UNIVERSITY OF CALIFORNIA, priority 2018, published 2023).
“Also recorded” adds a separate entry of the source. Like-named read-outs stand apart in the source and are kept apart here.

Columns and labels:
murine slc26a3 = target: T1, murine slc26a3 (Mus musculus, UniProt Q9WVC8); test: slc26a3-mediated Cl-/I- exchange, YFP fluorescence quenching in FRT-YFP-slc26a3 cells; type: cell-based
T1 construct: host or cells: Fischer rat thyroid (FRT) cells expressing YFP, clonal line FRT-YFP-slc26a3
T1 sequence (Q9WVC8 1-757): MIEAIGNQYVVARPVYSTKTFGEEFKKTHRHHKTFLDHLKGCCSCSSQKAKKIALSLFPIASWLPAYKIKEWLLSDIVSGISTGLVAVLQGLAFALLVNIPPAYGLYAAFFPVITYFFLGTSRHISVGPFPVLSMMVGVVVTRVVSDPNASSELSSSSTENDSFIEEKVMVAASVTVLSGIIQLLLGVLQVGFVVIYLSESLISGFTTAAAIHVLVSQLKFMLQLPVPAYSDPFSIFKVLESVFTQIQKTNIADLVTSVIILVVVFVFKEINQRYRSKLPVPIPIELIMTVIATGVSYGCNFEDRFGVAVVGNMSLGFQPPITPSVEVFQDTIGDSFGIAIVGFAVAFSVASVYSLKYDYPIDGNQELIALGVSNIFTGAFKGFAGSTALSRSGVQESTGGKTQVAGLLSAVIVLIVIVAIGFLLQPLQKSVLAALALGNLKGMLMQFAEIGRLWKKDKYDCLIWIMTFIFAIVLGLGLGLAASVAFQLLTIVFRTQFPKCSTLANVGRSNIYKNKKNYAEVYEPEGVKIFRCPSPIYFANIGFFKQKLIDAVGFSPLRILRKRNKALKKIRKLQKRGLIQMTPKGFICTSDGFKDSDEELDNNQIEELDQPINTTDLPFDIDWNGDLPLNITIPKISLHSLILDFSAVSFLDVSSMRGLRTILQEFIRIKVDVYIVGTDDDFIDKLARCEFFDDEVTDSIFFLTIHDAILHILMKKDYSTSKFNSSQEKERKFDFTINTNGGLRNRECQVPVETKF
Procedure: High-throughput screening to identify slc26a3 inhibitors using FRT-YFP- slc26a3 cells was done with a semi-automated Beckman Coulter (Indianapolis, IN) platform with FLUOstar OMEGA plate readers (BMG Labtech, Cary, NC), essentially as described for discovery of pendrin inhibitors. Initial screening was done of ~50,000 drug-like synthetic small molecules (ChemDiv, San Diego, CA) at a concentration of 25 µM using a Cl^-/I^- exchange protocol to assay slc26a3 function. Following initial screening, compound analogs were purchased (ChemDiv, San Diego, CA) to generate structure-activity data.
For the screening, FRT-YFP-slc26a3 cells were plated in 96-well black-walled, clear-bottom tissue culture plates (Corning Life Sciences, Tewksbury, MA) at a density of 20,000 cells/well and cultured for 48 hours until confluent. For screening, cells were washed twice in PBS and incubated for 10 min in 100 µl PBS containing test compounds prior to assay of slc26a3 function. Assays were done using a FLUOstar OMEGA plate reader (BMG Labtech, Cary, NC) over 12 s with initial fluorescence recorded over 1 s prior to addition of 100 µl NaI-substituted PBS (137 mM NaCl replaced by 137 mM NaI) to drive Cl^-/I^- exchange. The initial rate of Cl^-/I^- exchange was determined from fluorescence intensity by single exponential regression. All plates contained wells with negative (1 % DMSO) and positive (350 µM niflumic acid) controls.
Screening was done using an FRT cell line stably expressing murine slc26a3 and a halide-sensitive yellow fluorescent protein (FRT-YFP- slc26a3 cells). FRT cells were used because of their low intrinsic permeability to anions that are transported by slc26a3, and because of their good adherence and rapid growth on uncoated plastic. As diagrammed in FIG. 1A, slc26a3-mediated transport was assayed from the kinetics of YFP fluorescence quenching in response to extracellular addition of I^- to drive Cl^-/I^- exchange; transport inhibition reduces the rate of fluorescence decrease.

[1] = Pharmacokinetics in mice, serum LC/MS; type: in vivo
Procedure: Pharmacokinetics of the Compound A1(DRAinh-A250) and analogs (DRAinh-A260 and DRAinh-A270) was determined in mice. After single dose intraperitoneal or oral administration (5 mg/kg for Compound A1 and DRAinh-A260, 10 mg/kg for DRAinh-A270), blood samples were collected via retro-orbital puncture at different time points and serum was separated by centrifugation. Compound concentrations were measured in serum using LC/MS. FIGS. 10A, 10B, 10C show the respective serum concentration of Compound A1 (FIG. 10A), DRAinh-A260 (FIG. 10B) and DRAinh-A270 (FIG. 10C) after single oral or intraperitoneal administration at zero time (n=3 mice per compound per administration route). Compound A1 had predicted therapeutic levels for at least 24 hours after single dose oral or intraperitoneal administration. […] (mean±SEM): 53.9±6.5% for Compound A1, 16.4±6.6% for DRAinh-A260, and 39.3±3.5% for DRAinh-A270.

[2] = tested on: loperamide-treated wild-type mice; test: Loperamide-induced constipation model in wild-type mice; type: in vivo; conditions: 5 mg/kg oral gavage 1 hour before loperamide, wild-type mice
Procedure: Female CD1 mice (age 8-10 weeks) were administered loperamide (0.3 mg/kg, intraperitoneally, Sigma-Aldrich) to produce constipation. Compound A1 (DRAinh-A250) (5 mg/kg, in saline containing vehicle (5% DMSO and 10% Kolliphor HS 15; Sigma-Aldrich)), tenapanor (5 mg/kg, in vehicle), both compounds (5 mg/kg each, in vehicle), or vehicle alone were administered by oral gavage 1 hour before loperamide. After loperamide injection, mice were placed individually in metabolic cages with ad libitum access to food and water. Stool samples were collected for 3 h, and total stool weight and number of fecal pellets were quantified. To measure stool water content, stool samples were dried at 80° C. for 24 h and water content was calculated as [wet weight-dry weight]/wet weight. Similar studies were done in cystic fibrosis (CF) mice (ΔF508 homozygous) lacking functional CFTR.
Constipation Model in MiceDRAinh-A260 and DRAinh-A270 were tested in a loperamide-induced constipation model in mice. Female CD1 mice (age 8-10 weeks) were administered loperamide (0.3 mg/kg, intraperitoneally, in 5% ethanol in PBS, 0.1 mg/mL final concentration) to produce constipation and vehicle in control mice. DRAinh-A260 (5 mg/kg, in saline with 5% DMSO and 10% Kolliphor HS 15) or DRAinh-A270 (1, 3 or 10 mg/kg, in PBS with 5% DMSO and 20% (2- hydroxypropyl)-β-cyclodextrin) or vehicle alone were administered by oral gavage 1 hour before loperamide (FIG. 11A). After loperamide injection, mice were placed individually in metabolic cages with free access to food and water. Stool samples were collected for 3 hours, and total stool weight and number of fecal pellets were quantified. To measure stool water content, stool samples were dried at 80° C. for 24 hours and water content was calculated as [wet weight-dry weight]/wet weight.

[3] = representative Class A compounds, Table 3, read-out: IC50

Structure (SMILES)	IC50 (murine slc26a3; [3])	further results
Cc1c(CC(=O)O)c(=O)oc2c(C)c(OCc3ccc(Cl)c(Cl)c3)ccc12 [Compound A7]	–	IC50 (murine slc26a3; selected class A analogs, Table 1, Cl-/I- exchange, read-out: IC50): 1800 nM
Cc1c(CC(=O)O)c(=O)oc2c(C)c(OCc3cccc([N+](=O)[O-])c3)ccc12 [Compound A253]	500 nM	–
Cc1c(CC(=O)O)c(=O)oc2c(C)c(OCc3cccc(C4CC4)c3)ccc12 [Compound A261]	70 nM	–
Cc1c(CC(=O)O)c(=O)oc2c(C)c(OCc3cc(C(F)(F)F)cc(C(F)(F)F)c3)ccc12 [Compound A263]	15000 nM	–
Cc1c(CC(=O)O)c(=O)oc2c(C)c(OCc3cc(C(F)(F)F)ccc3F)ccc12 [Compound A266]	100 nM	–
Cc1c(CC(=O)O)c(=O)oc2c(C)c(OCc3ccccc3I)ccc12 [Compound A269]	4500 nM	–
CCCCCCOc1ccc2c(C)c(CC(=O)O)c(=O)oc2c1C [Compound A278]	1500 nM	–
Cc1c(CC(=O)O)c(=O)oc2c(C)c(OC3CCCC3)ccc12 [Compound A279]	4500 nM	–
O=C(O)c1cccnc1Nc1cccc(C(F)(F)F)c1 [niflumic acid, reference compound]	–	inhibition of slc26a3, positive control (murine slc26a3; 350 µM): strongly inhibited; IC50 (murine slc26a3; read-out: IC50 for inhibition of slc26a3-mediated Cl-/I- exchange): ~60000 nM

Now from value to molecule, other results behind:

IC50 (murine slc26a3; [3])	Structure (SMILES)	further results
3400 nM	Cc1c(CC(=O)O)c(=O)oc2c(C)c(OCC3CCC3)ccc12 [Compound A280]	–
1800 nM	Cc1c(CC(=O)O)c(=O)oc2c(C)c(OCC3CCCC3)ccc12 [Compound A281]	–
300 nM	Cc1c(CC(=O)O)c(=O)oc2c(C)c(OCc3ccc(C(F)(F)F)o3)ccc12 [Compound A286]	–
25 nM	Cc1c(CC(=O)O)c(=O)oc2c(C)c(OCc3cccc(C(F)(F)F)c3)ccc12 [DRAinh-A260]	oral bioavailability ([1]; 5 mg/kg (A1, A260) or 10 mg/kg (A270), mice): 16%; serum level time course ([1]; 5 mg/kg single dose oral or intraperitoneal): high serum levels initially; also recorded: almost complete disappearance of compound from serum at 16 hours; bioavailability ([1]; mouse, serum, po, 5 mg/kg (A1, A260) or 10 mg/kg (A270), mice, n=3, read-out: oral bioavailability (mean±SEM)): 16.4 ± 6.6%; three-hour stool weight, number of pellets and stool water content [2]: improving stool weight, pellet number and water content; also recorded: improves 3-hour stool weight, pellet number and water content
